Measured values taken from the supplement of paper PMC10307832.

Key:
Test in all cases: relative viability (nuclei count vs DMSO), 5 days (fraction); higher = more cells survive
Shikonin + Dasatinib = compound: CC(C)=CC[C@@H](O)C1=CC(=O)c2c(O)ccc(O)c2C1=O [Shikonin] + Cc1nc(Nc2ncc(C(=O)Nc3c(C)cccc3Cl)s2)cc(N2CCN(CCO)CC2)n1 [Dasatinib] (partner 0.075 µM)
Outline: (§1)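 For relative viability, nuclei counts in treated wells were divided by those in vehicle wells. Lung cancer cell lines had been pin-tool dosed in 1536-well plates the day after seeding and cultured for 5 days, then fixed and stained in one step (final 0.05% Triton X-100, 1% formaldehyde, 1 ug/ml Hoechst) and imaged at 4×. Doses were one drug alone or a fixed anchor-drug dose plus five library-drug doses (not always all listed) in √10 steps, and values are duplicate-plate medians.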

[1] = compound: CC(C)N(CCCNC(=O)Nc1ccc(C(C)(C)C)cc1)C[C@H]1O[C@@H](n2ccc3c(N)ncnc32)[C@H](O)[C@@H]1O + CC(=O)Nc1cccc(-n2c(=O)n(C3CC3)c(=O)c3c(Nc4ccc(I)cc4F)n(C)c(=O)c(C)c32)c1 [Trametinib] (partner 0.02 µM)
Outline: as §1

Shikonin + Bortezomib = compound: CC(C)=CC[C@@H](O)C1=CC(=O)c2c(O)ccc(O)c2C1=O [Shikonin] + CC(C)C[C@H](NC(=O)[C@H](Cc1ccccc1)NC(=O)c1cnccn1)B(O)O [Bortezomib] (partner 0.002 µM)
Outline: as §1

[2] = compound: CC(C)N(CCCNC(=O)Nc1ccc(C(C)(C)C)cc1)C[C@H]1O[C@@H](n2ccc3c(N)ncnc32)[C@H](O)[C@@H]1O + COc1cc2c(Oc3ccc(NC(=O)C4(C(=O)Nc5ccc(F)cc5)CC4)cc3F)ccnc2cc1OCCCN1CCOCC1 [Foretinib] (partner 0.25 µM)
Outline: as §1

| Cell Line | relative viability (Shikonin + Dasatinib; first compound 0.01 µM) | relative viability (Shikonin + Dasatinib; first compound 0.1 µM) | relative viability (Shikonin + Dasatinib; first compound 0.3162 µM) | relative viability (Shikonin + Dasatinib; first compound 1 µM) | relative viability ([1]; first compound 0.08 µM) | relative viability ([1]; first compound 0.253 µM) | relative viability ([1]; first compound 0.8 µM) | relative viability ([1]; first compound 2.53 µM) | relative viability ([1]; first compound 8 µM) | relative viability (Shikonin + Bortezomib; first compound 0.01 µM) | relative viability (Shikonin + Bortezomib; first compound 0.1 µM) | relative viability (Shikonin + Bortezomib; first compound 0.3162 µM) | relative viability (Shikonin + Bortezomib; first compound 1 µM) | relative viability ([2]; first compound 0.08 µM) | relative viability ([2]; first compound 0.253 µM) | relative viability ([2]; first compound 0.8 µM) | relative viability ([2]; first compound 2.53 µM) | relative viability ([2]; first compound 8 µM) |
| --- | --- | --- | --- | --- | --- | --- | --- | --- | --- | --- | --- | --- | --- | --- | --- | --- | --- | --- |
| LC-2-ad | 0.528 | 0.586 | 0.418 | 0.893 | 0.848 | 0.936 | 0.895 | 0.917 | 0.855 | 1.08 | 1.05 | 1.07 | 1.02 | 0.895 | 0.9 | 0.894 | 0.899 | 0.9 |
| NCI-H1915 | 0.316 | 0.35 | 0.3 | 0.341 | 0.3 | 0.306 | 0.302 | 0.311 | 0.292 | 1.01 | 1.15 | 1.06 | 1.06 | 1.02 | 1.07 | 1.06 | 1 | 1.03 |
| NCI-H2085 | 0.229 | 0.248 | 0.221 | 0.222 | 0.509 | 0.455 | 0.685 | 0.572 | 0.47 | 1.08 | 1.02 | 1.01 | 0.922 | 0.957 | 1.04 | 1.1 | 0.928 | 1.02 |
| COR-L 105 | 0.329 | 0.329 | 0.307 | 0.335 | 0.492 | 0.402 | 0.496 | 0.465 | 0.537 | 0.88 | 0.887 | 0.751 | 0.603 | 1.14 | 0.99 | 1.02 | 1.07 | 1.03 |
| SW 1573 | 0.591 | 0.546 | 0.444 | 0.144 | 0.591 | 0.565 | 0.588 | 0.67 | 0.559 | 1.12 | 1.39 | 1.06 | 0.955 | 0.81 | 0.707 | 0.825 | 0.927 | 1.08 |
| LXF-289 | 0.213 | 0.214 | 0.231 | 0.229 | 0.661 | 0.684 | 0.651 | 0.732 | 0.71 | 1.1 | 1.03 | 1 | 1.04 | 0.96 | 1.03 | 0.94 | 1.01 | 0.94 |
| RERF-LC-KJ | 0.991 | 0.975 | 0.834 | 0.661 | 0.902 | 0.938 | 0.815 | 0.911 | 0.783 | 1.08 | 1.19 | 1.28 | 0.986 | 0.906 | 0.814 | 0.888 | 0.794 | 0.79 |
| NCI-H727 | 0.391 | 0.397 | 0.344 | 0.241 | 0.36 | 0.424 | 0.416 | 0.349 | 0.396 | 0.862 | 0.933 | 0.973 | 0.755 | 0.872 | 0.891 | 0.777 | 1.13 | 0.877 |
| NCI-H1666 | 0.809 | 0.873 | 0.882 | 0.857 | 0.772 | 0.814 | 0.804 | 0.86 | 0.764 | 0.799 | 0.879 | 0.819 | 0.729 | 0.976 | 0.949 | 1.03 | 0.938 | 0.92 |
| NCI-H2087 | 0.868 | 1.1 | 0.83 | 0.893 | 0.165 | 0.191 | 0.225 | 0.232 | 0.22 | 0.951 | 0.888 | 1.14 | 0.898 | 1.1 | 1.32 | 1.22 | 1.14 | 1.22 |
| NCI-H1734 | 0.512 | 0.499 | 0.538 | 0.477 | 0.587 | 0.653 | 0.69 | 0.703 | 0.561 | 1.09 | 0.999 | 0.819 | 0.909 | 0.825 | 1.01 | 0.918 | 0.796 | 0.804 |
| NCI-H2228 | 0.539 | 0.534 | 0.46 | 0.522 | 0.631 | 0.375 | 0.388 | 0.52 | 0.526 | 0.928 | 0.877 | 1.25 | 0.981 | 0.865 | 0.895 | 0.931 | 0.976 | 0.905 |
| EMC-BAC-2 | 0.301 | 0.322 | 0.375 | 0.298 | 0.895 | 0.851 | 0.965 | 0.854 | 0.819 | 1.05 | 1.18 | 1.21 | 1.07 | 0.975 | 0.98 | 1.04 | 1.09 | 0.935 |
| NCI-H2009 | 0.281 | 0.301 | 0.239 | 0.134 | 0.272 | 0.244 | 0.301 | 0.255 | 0.296 | 1.07 | 1.11 | 0.904 | 0.289 | 1.26 | 1.19 | 1.23 | 1.24 | 1.19 |
| NCI-H647 | 0.159 | 0.156 | 0.145 | 0.171 | 0.435 | 0.368 | 0.478 | 0.467 | 0.432 | 1.06 | 0.829 | 1.05 | 1.03 | 1.23 | 1.27 |  | 1.17 | 1.13 |
| NCI-H661 | 0.866 | 0.856 | 0.816 | 0.983 | 0.544 | 0.551 | 0.551 | 0.675 | 0.619 | 0.835 | 0.818 | 0.734 | 0.769 | 1.08 | 1.13 | 1.09 | 1.11 | 1.06 |
| ChaGo-K-1 | 0.501 | 0.616 | 0.56 | 0.67 | 0.91 | 0.875 | 0.876 | 0.876 | 0.843 | 0.957 | 1.35 | 0.911 | 1.53 | 0.915 | 0.924 | 0.974 | 0.901 | 0.976 |
